The values below come from PubChem BioAssay (NCI).

Among the test systems are CAKI-1 renal; CCRF-CEM leukemia; DU-145 prostate; HOP-92 NSCLC; HS 578T breast; KM12 colon; MDA-MB-231 breast; RXF 393 renal; SK-MEL-28 melanoma; UO-31 renal.
What all share (assay): NCI tumour cell line growth inhibition, 48 h

Several values for one entry are separate records, joined by “and”; a condition that tells them apart may be missing. Equal values may be shown once.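 Cells were grown in 96-well plates and exposed to each compound for 48 hours at five concentrations; endpoints were interpolated linearly between bracketing concentrations, or set to the highest concentration if not reached. GI50 = concentration required for 50% inhibition of growth. Definition used: TGI = concentration required for complete inhibition of growth.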

Turning to `COc1cc(/C=C/c2ccc3c(Br)cc(Br)c(O)c3n2)ccc1O`, the GI50 with CAKI-1 renal was 0.553 µM; in the assay with CCRF-CEM leukemia, 0.359 µM; in the assay with DU-145 prostate, 2.41 µM; with HOP-92 NSCLC it was 4.77 µM; in the assay with HS 578T breast it was 2.01 µM; with KM12 colon it was 1.41 µM. Besides, the GI50 with MDA-MB-231 breast is 7.39 µM; in the assay on RXF 393 renal it was 3.8 µM; in the assay on SK-MEL-28 melanoma it was 3.16 µM; in the assay with UO-31 renal, 1.28 µM. In addition, the TGI with CAKI-1 renal was 5.42 µM; in the assay with CCRF-CEM leukemia, 3.03 µM; with DU-145 prostate, 17.6 µM; in the assay on HOP-92 NSCLC, 20.8 µM; with HS 578T breast, 14.6 µM; in the assay with KM12 colon, 13.2 µM. For the same compound, the TGI is 22 µM with MDA-MB-231 breast, 18.3 µM in the assay on RXF 393 renal, 12.9 µM in the assay on SK-MEL-28 melanoma and 12.4 µM in the assay on UO-31 renal.
As to `FC(F)(F)c1cccc(-c2nn3ncccc3c2-c2ccnc(Nc3ccc4c(c3)OCCO4)n2)c1`, the GI50 with CAKI-1 renal is 7.66 µM; in the assay with CCRF-CEM leukemia, 0.511 µM; in the assay with DU-145 prostate, 19.2 µM; in the assay with HOP-92 NSCLC it was 5.52 µM; with HS 578T breast it was 16.4 µM; in the assay with KM12 colon, 14.1 µM. Besides, the GI50 in the assay with MDA-MB-231 breast is 9.02 µM; in the assay with RXF 393 renal, 6.83 µM; in the assay on SK-MEL-28 melanoma it was over 25 µM; with UO-31 renal, 3.68 µM. Further, the TGI in the assay on CAKI-1 renal, in the assay on CCRF-CEM leukemia, in the assay on DU-145 prostate, in the assay on HOP-92 NSCLC, in the assay on HS 578T breast and in the assay with KM12 colon was over 25 µM throughout. Besides, the TGI in the assay with MDA-MB-231 breast, in the assay with RXF 393 renal, in the assay with SK-MEL-28 melanoma and in the assay with UO-31 renal was over 25 µM in each case.
As to `CSc1ccc(C2=NN(C(C)=O)C(c3ccc(-c4ccc(Cl)cc4)o3)C2)cc1` (configuration not stated), the GI50 is 31.1 µM in the assay on CAKI-1 renal; 44.2 µM in the assay on CCRF-CEM leukemia; 81 µM in the assay on DU-145 prostate; 22.7 µM in the assay with HOP-92 NSCLC; 49.8 µM in the assay with HS 578T breast; 24 µM in the assay on KM12 colon. The GI50 in the assay on MDA-MB-231 breast was 19.3 µM; in the assay with RXF 393 renal, 44.6 µM; in the assay with SK-MEL-28 melanoma, 86.2 µM; with UO-31 renal, 28.5 µM. The TGI with CAKI-1 renal is over 100 µM; with CCRF-CEM leukemia, over 100 µM; in the assay on DU-145 prostate, over 100 µM; in the assay on HOP-92 NSCLC, 80.1 µM; with HS 578T breast, over 100 µM; in the assay with KM12 colon, over 100 µM. For the same compound, the TGI with MDA-MB-231 breast, in the assay with RXF 393 renal, in the assay on SK-MEL-28 melanoma and in the assay on UO-31 renal was over 100 µM each time.
Consider `COc1ccc(/C=C(/C)[N+](=O)[O-])cc1OC`, for which the GI50 is 1.88 µM and 0.338 µM with CAKI-1 renal; 1.96 µM and 0.786 µM in the assay on CCRF-CEM leukemia; 2.42 µM and 2.45 µM in the assay with DU-145 prostate; 1.78 µM and 2.48 µM in the assay on HOP-92 NSCLC; 6.2 µM and 5.55 µM in the assay on HS 578T breast; 3.66 µM and 2.1 µM in the assay with KM12 colon. Moreover, the GI50 in the assay on MDA-MB-231 breast was 1.97 µM and 2.38 µM; in the assay on RXF 393 renal it was 1.7 µM and 1.42 µM; in the assay on SK-MEL-28 melanoma, 1.76 µM and 1.87 µM; in the assay with UO-31 renal it was 1.74 µM and 1.61 µM. The TGI is 4.04 µM and 1.46 µM in the assay on CAKI-1 renal; 5.31 µM and 5.72 µM with CCRF-CEM leukemia; 5.72 µM and 5.67 µM in the assay with DU-145 prostate; 4.52 µM and 5.64 µM with HOP-92 NSCLC; over 100 µM in the assay on HS 578T breast; 9.69 µM and 5.79 µM in the assay on KM12 colon. The TGI in the assay on MDA-MB-231 breast was 4.26 µM and 5.02 µM; in the assay with RXF 393 renal it was 3.16 µM and 2.78 µM; in the assay with SK-MEL-28 melanoma, 3.66 µM and 3.6 µM; with UO-31 renal, 3.26 µM and 3.23 µM.
As to `CC1c2ccccc2CCN1c1ccc(CO)c(Cl)c1` (configuration not stated), the GI50 in the assay on CAKI-1 renal is 3.46 µM; in the assay on CCRF-CEM leukemia, 30.9 µM; with DU-145 prostate, 11.6 µM; with HOP-92 NSCLC, 0.19 µM; with HS 578T breast, 21.9 µM; in the assay with KM12 colon, 22.6 µM. The GI50 in the assay with MDA-MB-231 breast is 15.5 µM; in the assay on RXF 393 renal, 1.2 µM; in the assay on SK-MEL-28 melanoma, 17.1 µM; in the assay with UO-31 renal, 14.6 µM. Further, the TGI in the assay with CAKI-1 renal was 50.3 µM; with CCRF-CEM leukemia, over 100 µM; with DU-145 prostate it was over 53 µM; in the assay on HOP-92 NSCLC, 16.6 µM; in the assay with HS 578T breast it was 70.7 µM; with KM12 colon it was over 72.5 µM. For the same compound, the TGI with MDA-MB-231 breast worked out at 58.4 µM; with RXF 393 renal it was 23.8 µM; in the assay on SK-MEL-28 melanoma, 63.7 µM; with UO-31 renal, 65.3 µM.
As to `O=C1C(OCCOc2ccccc2)=C(OCCOc2ccccc2)C(=O)c2ccccc21`, the GI50 in the assay with CAKI-1 renal is 12.5 µM; in the assay with CCRF-CEM leukemia, over 100 µM; in the assay on DU-145 prostate, 7.12 µM; in the assay with HOP-92 NSCLC it was 1.21 µM; in the assay on HS 578T breast it was 8.96 µM; in the assay on KM12 colon it was 4.71 µM. Further, the GI50 is over 100 µM in the assay on MDA-MB-231 breast, 40.2 µM in the assay with RXF 393 renal, 16.5 µM in the assay on SK-MEL-28 melanoma and 12.2 µM with UO-31 renal. The TGI in the assay on CAKI-1 renal, in the assay on CCRF-CEM leukemia, with DU-145 prostate, in the assay with HOP-92 NSCLC, in the assay with HS 578T breast and with KM12 colon was over 100 µM throughout. The TGI with MDA-MB-231 breast, in the assay on RXF 393 renal, in the assay with SK-MEL-28 melanoma and in the assay on UO-31 renal was over 100 µM in each case.
As for `Nc1n[nH]c2ccc([C@@H]3Nc4cc5c(cc4[C@H]4C6CCC(C6)[C@@H]34)C(=O)NC5)cc12` (some centres not stated), the GI50 in the assay on CAKI-1 renal was 0.498 µM; in the assay with CCRF-CEM leukemia it was 0.323 µM; in the assay on DU-145 prostate, 0.416 µM; in the assay with HOP-92 NSCLC, 0.375 µM; with HS 578T breast, 0.484 µM; in the assay with KM12 colon it was 0.472 µM. Besides, the figures for the GI50 with MDA-MB-231 breast, in the assay on RXF 393 renal and with SK-MEL-28 melanoma were 0.436 µM, 0.273 µM and 4.17 µM, respectively. For the same compound, the TGI in the assay on CAKI-1 renal was over 100 µM; with CCRF-CEM leukemia, over 100 µM; in the assay on DU-145 prostate, over 40.7 µM; with HOP-92 NSCLC, over 100 µM; in the assay on HS 578T breast, over 100 µM; in the assay on KM12 colon, over 100 µM. Moreover, the TGI in the assay on SK-MEL-28 melanoma and in the assay on UO-31 renal was over 100 µM in each case.
